From patent US10294229B2, “Heteroaryl substituted aminopyridine compounds” (BRISTOL-MYERS SQUIBB COMPANY, priority 2015, dated 2019)

Legend:
[1] = tested on: Caco-2 cells; assay: Caco-2 Permeability Assay; type: in vitro ADME; conditions: test compound 3 μM
Method in brief: (§1)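 Bidirectional permeability measured over 2 h at 37° C, compound dosed at 3 μM in the donor compartment (apical for absorptive, basolateral for secretive) with plain buffer as receiver.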

[2] = tested on: Human whole blood stimulated with a TLR2 agonist (lipoteichoic acid), IL-6 levels; assay: IRAK4 Whole Blood Assay; type: cell-based; conditions: lipoteichoic acid 10 μg/mL
Method in brief: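 IL-6 was quantified by cytometric bead assay in supernatants of human blood (ACD-A) stimulated for 5 h with lipoteichoic acid at 10 μg/mL final. Compound exposure preceded stimulation for 60 min at 37 °C, 5% CO2.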

[3] = biological target: IRAK4 (Homo sapiens (Human), UniProt Q9NWZ3); assay: IRAK4 Inhibition Assay; type: biochemical; conditions: ATP 500 μM; IRAK4 0.6 nM
Sequence of IRAK4 (Q9NWZ3 whole entry, species assumed): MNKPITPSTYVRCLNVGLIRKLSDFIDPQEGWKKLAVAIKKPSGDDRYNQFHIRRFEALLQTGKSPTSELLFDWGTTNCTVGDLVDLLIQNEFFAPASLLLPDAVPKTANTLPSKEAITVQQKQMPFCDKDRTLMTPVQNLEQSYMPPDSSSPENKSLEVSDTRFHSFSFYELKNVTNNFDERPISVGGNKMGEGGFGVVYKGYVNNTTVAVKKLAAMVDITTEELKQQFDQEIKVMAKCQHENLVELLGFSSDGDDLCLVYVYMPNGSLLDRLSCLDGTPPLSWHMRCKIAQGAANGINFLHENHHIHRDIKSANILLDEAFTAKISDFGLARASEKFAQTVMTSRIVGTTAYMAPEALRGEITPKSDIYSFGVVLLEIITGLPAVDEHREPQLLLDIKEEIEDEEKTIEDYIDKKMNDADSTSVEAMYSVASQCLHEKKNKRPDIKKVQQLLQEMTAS
Method in brief: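 Mobility-shift kinase assay: 0.6 nM IRAK4, 500 μM ATP, 1.5 μM fluorescent peptide, 60 min, room temperature. Percent inhibition was normalised between enzyme-free and DMSO-only wells.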

[4] = Caco-2 Permeability Assay; type: in vitro ADME; conditions: human, Caco-2, test compound 3 μM
Method in brief: as §1

Compound | Caco-2 Permeability [1] | EC50 [2] | IC50 [3] | Caco-2 Permeability ([1]; listed as 400, Isomer 2) | EC50 ([2]; listed as 400, Isomer 2) | Papp at 2 h, 3 µM [4] | EC50 ([2]; Homo sapiens)
CC(=O)N1CCCC(n2cc(-c3cnc(-n4ncc5cc(C#N)cnc54)cc3NC(C)C)nn2)C1 (centres unmarked) [Example 161, 1-(5-(1-(1-acetylpiperidin-3-yl)-1H-1,2,3-triazol-4-yl)-4-(isopropylamino)pyridin-2-yl)-1H-pyrazolo[3,4-b]pyridine-5-carbonitrile] | 35 nm/s | 0.25 µM | 0.002 µM | – | – | – | –
CC(=O)N1CCC[C@@H](c2cc(-c3cnc(-n4ncc5cc(C#N)cnc54)cc3NC(C)C)on2)C1 [Example 409, (R)-1-(5-(3-(1-acetylpiperidin-3-yl)isoxazol-5-yl)-4-(isopropylamino)pyridin-2-yl)-1H-pyrazolo[3,4-b]pyridine-5-carbonitrile] | 302 nm/s | 0.47 µM | 0.002 µM | – | – | – | –
CC(C)Nc1cc(-n2ncc3cc(C#N)cnc32)ncc1-c1cc(C2COCCN2)no1 (single isomer, unassigned) [Example 400, Isomer 2, 1-(4-(isopropylamino)-5-(3-(morpholin-3-yl)isoxazol-5-yl)pyridin-2-yl)-1H-pyrazolo[3,4-b]pyridine-5-carbonitrile] | – | – | 0.006 µM | 530 nm/s | 0.27 µM | – | –
CC(C)Nc1cc(-n2ncc3cc(C#N)cnc32)ncc1-c1cn(C2CCOC2)nn1 (centres unmarked) [Example 215, 1-(4-(isopropylamino)-5-(1-(tetrahydrofuran-3-yl)-1H-1,2,3-triazol-4-yl)pyridin-2-yl)-1H-pyrazolo[3,4-b]pyridine-5-carbonitrile] | 104 nm/s | 1.31 µM | 0.008 µM | – | – | – | –
CC(C)Nc1cc(-n2ncc3cc(C#N)cnc32)ncc1-c1cc(C2CCCCN2)no1 [Example 413, (S)-1-(4-(isopropylamino)-5-(3-(piperidin-2-yl)isoxazol-5-yl)pyridin-2-yl)-1H-pyrazolo[3,4-b]pyridine-5-carbonitrile] | 139 nm/s | 0.3 µM | 0.005 µM | – | – | – | –
CC(C)Nc1cc(-n2ncc3cc(C#N)cnc32)ncc1-c1cc(CC(C)(C)O)on1 [Example 439, 1-(5-(5-(2-hydroxy-2-methylpropyl)isoxazol-3-yl)-4-(isopropylamino)pyridin-2-yl)-1H-pyrazolo[3,4-b]pyridine-5-carbonitrile] | 310 nm/s | 0.25 µM | – | – | – | – | –
CCOCCn1cc(-c2cnc(-n3ncc4cc(C#N)cnc43)cc2NC(C)C)nn1 [Example 122, 1-(5-(1-(2-ethoxyethyl)-1H-1,2,3-triazol-4-yl)-4-(isopropylamino)pyridin-2-yl)-1H-pyrazolo[3,4-b]pyridine-5-carbonitrile] | – | – | 0.006 µM | – | – | 322 nm/s | 0.59 µM
CC(C)Nc1cc(-n2ncc3cc(C#N)cnc32)ncc1-c1cc([C@@H]2COC(C)(C)O2)no1 [Example 420, (R)-1-(5-(3-(2,2-dimethyl-1,3-dioxolan-4-yl)isoxazol-5-yl)-4-(isopropylamino)pyridin-2-yl)-1H-pyrazolo[3,4-b]pyridine-5-carbonitrile] | – | – | 0.006 µM | – | – | 438 nm/s | 0.35 µM
CC(C)Nc1cc(-n2ncc3cc(C#N)c(N)nc32)ncc1-c1cn(CC(C)(C)O)nn1 [Example 97, 6-amino-1-(5-(1-(2-hydroxy-2-methylpropyl)-1H-1,2,3-triazol-4-yl)-4-(isopropylamino)pyridin-2-yl)-1H-pyrazolo[3,4-b]pyridine-5-carbonitrile] | – | – | 0.008 µM | – | – | < 15 nm/s | 1.44 µM
CCC(C)(O)Cc1cn(-c2cnc(-n3ncc4cc(C#N)cnc43)cc2NC(C)C)nn1 (centres unmarked) [Example 318, 1-(5-(4-(2-hydroxy-2-methylbutyl)-1H-1,2,3-triazol-1-yl)-4-(isopropylamino)pyridin-2-yl)-1H-pyrazolo[3,4-b]pyridine-5-carbonitrile] | – | – | 0.025 µM | – | – | 108 nm/s | 0.79 µM
